Measurements as given in patent publication US20210403498A1, “PHYTOCHEMICAL-FRUCTOOLIGOSACCHARIDE CONJUGATE, METHOD FOR PRODUCING SAME, AND USE THEREOF” (EVERGREEN BIO CO., LTD., priority 2018, published 2021).
Converted amounts (≈) assume the structure as drawn. Like-named read-outs stand apart in the source and are kept apart here.

What was measured:
[1] = tested on: CCD 18Co (Normal Human colon fibroblast primary cell line); assay: CCK-8 cell proliferation, normal colon cells; type: cell-based; conditions: 72 hr
Experimental: (§1) Specifically, the cell lines cultured in each well of a 96-well plate were dispensed at a density of 18,000 cells per well and cultured overnight, and then the cells were treated with drugs dissolved in various concentrations in the culture medium, and were incubated for 72 hr under a temperature of 37° C. and 5% CO2 condition in a humidified incubator. After completion of the culture, the medium was removed and replaced with 100 μl of PBS, and […] Cell Counting Kit-8 (CCK-8; Dojindo, Japan) solution was added thereto, and the cells were incubated for 3 hr for reaction. Thereafter, the degree of color development of the reaction solution was measured based on absorbance at 450 nm, and the number of cell proliferation was calculated according to the instructions of the producing company.
(§2) HT-29 cells were cultured in McCoy's 5A medium, LoVo cells were cultured in Ham's F-12K (Kaigh's) medium, CCD 18Co cells were cultured in DMEM. Before use, 10% Fetal bovine serum and 100 U/ml penicillin, streptomycin were added to all media.

[2] = tested on: Lovo (Colorectal adenocarcinoma capable of metastasis); assay: CCK-8 cell proliferation, metastasis colorectal cancer cells; type: cell-based, human; conditions: for IC50: Lovo, 72 hr, CCK-8; for SI (Selectivity Index): IC50 for Normal cell (CCD 18Co)/IC50 for Lovo
Experimental: as §1, §2

[3] = In vivo pharmacokinetics in rats (FA in plasma, LC MS/MS); conditions: male, Sprague Dawley; rat plasma, single oral dose 100 mg/kg FA
Experimental: In order to evaluate the in vivo pharmacokinetics of FA-FOS II, the release profile of ferulic acid (FA) released from FA-FOS II in the colon of rats was investigated. Specifically, male Sprague Dawley rats weighing 180 to 250 g were randomly assigned to three groups as follows.
(ii) Ferulic acid (FA) administered group: a drug is prepared by dissolving ferulic acid (FA) in water and is administered orally thereto at a predetermined dose
(iii) FA-FOS II administered group: a drug is prepared by dissolving FA-FOS II in water and is administered orally thereto at a predetermined dose
Ferulic acid (FA) was orally administered to the rats at a dose of 100 mg/kg body weight, based on the amount of ferulic acid (FA), in the state dissolved in sterile water. Further, FA-FOS II was orally administered thereto at a dose of 3.89 g/kg body weight (equivalent to 100 mg/kg body weight in terms of the amount of ferulic acid) based on the amount of FA-FOS II, in the state dissolved in sterile water. After single dose administration via oral intake, rat blood was continuously sampled over 0, 0.5, 1, 3, 6, 8, 12, 24 hr. The sampled samples were subjected to LC MS/MS analysis in a multiple reaction monitoring (MRM) manner of a molecular weight 193.0/133.9 Da (intact mass/fragment mass of FA) to quantify the FA released from plasma.

[4] = tested on: HT-29 (Colorectal adenocarcinoma); assay: CCK-8 cell proliferation, colorectal cancer cells; type: cell-based, human; conditions: for IC50: HT-29, 72 hr, CCK-8; for SI (Selectivity Index): IC50 for Normal cell (CCD 18Co)/IC50 for HT-29
Experimental: as §1, §2

COc1cc(/C=C/C(=O)O)ccc1O [FA, ferulic acid]
IC50 ([1]; Homo sapiens, read-out: IC50): 0.583 µg/mL (≈ 3 µM)
IC50 ([2]; Homo sapiens, read-out: IC50): 0.244 µg/mL (≈ 1.26 µM)
SI (Selectivity Index) [2]: (SI: >2.389)
Tmax [3]: ~5 min
half-life [3]: ~30 min
IC50 ([4]; Homo sapiens, read-out: IC50): 0.2 µg/mL (≈ 1.03 µM)
SI (Selectivity Index) [4]: (SI: >2.918)

O=C1[O][Pt]2([NH][C@@H]3CCCC[C@H]3[NH]2)[O]C1=O [Oxaliplatin, oxaliplatin]
IC50 [1]: 0.100 µg/mL
SI (Selectivity Index) [2]: (SI: 1.473)
IC50 [2]: 0.068 µg/mL
IC50 [4]: 0.015 µg/mL
SI (Selectivity Index) [4]: (SI: 6.631)

O=c1[nH]cc(F)c(=O)[nH]1 [5-Fluorouracil, 5-fluorouracil]
IC50 ([1]; Homo sapiens, read-out: IC50): 0.014 µg/mL (≈ 0.108 µM)
IC50 ([2]; Homo sapiens, read-out: IC50): 0.074 µg/mL (≈ 0.569 µM)
SI (Selectivity Index) [2]: (SI: 0.186)
IC50 ([4]; Homo sapiens, read-out: IC50): 0.008 µg/mL (≈ 0.0615 µM)
SI (Selectivity Index) [4]: (SI: 1.685)
